Source: patent publication US20160022683A1, “COMBINATIONS OF BRUTON'S TYROSINE KINASE INHIBITORS AND CYP3A4 INHIBITORS” (PHARMACYCLICS LLC, priority 2013, published 2016)
Values joined by “and” are separate entries in the source; they are usually repeats but may differ in a detail not shown here. Equal values may be shown once. Read-outs that look alike come from different tables or passages of the source. Blank lines part the entries; values can stand above or below the compound they belong to.

Assays:
[1] = for DN* AUC∞ / DN*AUC0-24 / DN*AUClast / DN*Cmax: dose normalized
clinical [2] = details: human, oral, 560 mg
[3] = healthy subjects
clinical [4] = details: male, human, plasma, oral, 120 mg
clinical [5] = details: human, in vivo, oral, spread in brackets; for AUC(0-inf): AUCinf
[6] = PCI-45227 in plasma, Day 1, 120 mg Ibrutinib alone, geom. mean
[7] = PCI-45227 in plasma, Day 1, 120 mg Ibrutinib alone, mean
[8] = PCI-45227 in plasma, Day 1, 120 mg Ibrutinib alone, median
[9] = PCI-45227 in plasma, Day 1, 120 mg Ibrutinib alone, not dose normalized, mean
[10] = PCI-45227 in plasma, Day 7, 40 mg Ibrutinib + ketoconazole, geom. mean
[11] = PCI-45227 in plasma, Day 7, 40 mg Ibrutinib + ketoconazole, mean
[12] = PCI-45227 in plasma, Day 7, 40 mg Ibrutinib + ketoconazole, median
[13] = 560 mg, Ibrutinib 560 mg alone, fasted, n=8
[14] = 560 mg, Ibrutinib 560 mg alone, fed, n=8
[15] = Ibrutinib 140 mg + grapefruit juice, fed, n=8
[16] = Ibrutinib in plasma, Day 1, 120 mg Ibrutinib alone, geom. mean
[17] = Ibrutinib in plasma, Day 1, 120 mg Ibrutinib alone, mean
[18] = Ibrutinib in plasma, Day 1, 120 mg Ibrutinib alone, median
[19] = Ibrutinib in plasma, Day 1, 120 mg Ibrutinib alone, n=12, geom. mean
[20] = Ibrutinib in plasma, Day 1, 120 mg Ibrutinib alone, n=12, mean
[21] = Ibrutinib in plasma, Day 1, 120 mg Ibrutinib alone, not dose normalized, mean
[22] = Ibrutinib in plasma, Day 7, 40 mg Ibrutinib + ketoconazole, geom. mean
[23] = Ibrutinib in plasma, Day 7, 40 mg Ibrutinib + ketoconazole, mean
[24] = Ibrutinib in plasma, Day 7, 40 mg Ibrutinib + ketoconazole, median

DN* AUC∞ [1, 6]: 98.2 ng·h/mL
DN*AUC0-24 [1, 6]: 76.6 ng·h/mL
DN*AUClast [1, 6]: 96.4 ng·h/mL
DN*Cmax [1, 6]: 8.81 ng/mL
DN* AUC∞ [1, 7]: 103 ng·h/mL
DN*AUC0-24 [1, 7]: 82.2 ng·h/mL
DN*AUClast [1, 7]: 101 ng·h/mL
DN*Cmax [1, 7]: 9.70 ng/mL
DN* AUC∞ [1, 8]: 101 ng·h/mL
DN*AUC0-24 [1, 8]: 81.3 ng·h/mL
DN*AUClast [1, 8]: 100 ng·h/mL
DN*Cmax [1, 8]: 9.45 ng/mL
AUMC∞ [1, 6]: 4122 h · h · ng/mL
CL/F [1, 6]: 407 L/h
MRT [1, 6]: 14.0 h
T½ term [1, 6]: 11.2 h
tlast [1, 6]: 65.80 h
tmax [1, 6]: 2.25 h
λz [1, 6]: 0.0619 h⁻¹
AUMC∞ [1, 7]: 4297 h · h · ng/mL
CL/F [1, 7]: 428 L/h
MRT [1, 7]: 14.3 h
T½ term [1, 7]: 11.41 h
tlast [1, 7]: 66.7 h and 66.67 h
tmax [1, 7]: 2.42 h
λz [1, 7]: 0.0630 h⁻¹
AUMC∞ [1, 8]: 3979 h · h · ng/mL
CL/F [1, 8]: 395 L/h
MRT [1, 8]: 13.6 h
T½ term [1, 8]: 10.74 h
tlast [1, 8]: 72.00 h
tmax [1, 8]: 2.00 h
λz [1, 8]: 0.0645 h⁻¹
AUC0-24 [1, 9]: 247 ng·h/mL
Cmax [1, 9]: 29.1 ng/mL
AUC0-24 [1, 10]: 53.4 ng·h/mL
AUClast [1, 10]: 82.7 ng·h/mL
AUC∞ [1, 10]: 89.4 ng·h/mL
AUMC∞ [1, 10]: 2216 h · h · ng/mL
CL/F [1, 10]: 448 L/h
Cmax [1, 10]: 3.63 ng/mL
MRT [1, 10]: 24.8 h
T½ term [1, 10]: 17.49 h
tlast [1, 10]: 67.30 h
tmax [1, 10]: 3.77 h
λz [1, 10]: 0.0396 h⁻¹
AUC0-24 [1, 11]: 54.5 ng·h/mL
AUClast [1, 11]: 85.2 ng·h/mL
AUC∞ [1, 11]: 92.2 ng·h/mL
AUMC∞ [1, 11]: 2416 h · h · ng/mL
CL/F [1, 11]: 461 L/h
Cmax [1, 11]: 3.71 ng/mL
MRT [1, 11]: 25.4 h
T½ term [1, 11]: 17.99 h
tlast [1, 11]: 68.01 h
tmax [1, 11]: 3.95 h
λz [1, 11]: 0.0407 h⁻¹
AUC0-24 [1, 12]: 53.8 ng·h/mL
AUClast [1, 12]: 82.7 ng·h/mL
AUC∞ [1, 12]: 89.6 ng·h/mL
AUMC∞ [1, 12]: 2177 h · h · ng/mL
CL/F [1, 12]: 447 L/h
Cmax [1, 12]: 3.74 ng/mL
MRT [1, 12]: 24.8 h
T½ term [1, 12]: 16.61 h
tlast [1, 12]: 72.00 h
tmax [1, 12]: 4.00 h
λz [1, 12]: 0.0417 h⁻¹
Structure (SMILES): Nc1ncnc2c1c(-c1ccc(Oc3ccccc3)cc1)nn2[C@@H]1CCCN(C(=O)C(O)CO)C1 (some centres unmarked) [PCI-45227]

Structure (SMILES): C=CC(=O)N1CCC[C@@H](n2nc(-c3ccc(Oc4ccccc4)cc3)c3c(N)ncnc32)C1 [Ibrutinib, 1-((R)-3-(4-amino-3-(4-phenoxyphenyl)-1H-pyrazolo[3,4-d]pyrimidin-1-yl)-piperidin-1-yl)prop-2-en-1-one]
AUC(0-t) (clinical [2]; blood): 259 ng·h/mL
Cmax (clinical [2]; blood): 42 ng/mL
AUC(0-inf) (clinical [2]; in vivo): 397 ng·h/mL
Ibrutinib systemic exposure when dosed concomitantly with rifampin [3]: significantly affected
AUC(0-inf) (clinical [4]): 22.4 ng·h/mL
MRT (clinical [4]): 9.13 h
AUC(0-t) (clinical [5]; 560 mg, AUC0-24 h, Ibrutinib 560 mg alone, fasted, n=8): 229 ng·h/mL
AUC(0-t) (clinical [5]; 560 mg, AUC0-24 h, Ibrutinib 560 mg alone, fed, n=7): 544 ng·h/mL
AUC(0-inf) (clinical [5]; [13]): 368 ng·h/mL
AUC(0-inf) (clinical [5]; [14]): 659 ng·h/mL
AUC(0-t) (clinical [5]; 560 mg, AUClast, Ibrutinib 560 mg alone, fasted, n=8): 289 ng·h/mL
AUC(0-t) (clinical [5]; 560 mg, AUClast, Ibrutinib 560 mg alone, fed, n=8): 606 ng·h/mL
Cmax (clinical [5]; [13]): 245 ng/mL
Cmax (clinical [5]; [14]): 128 ng/mL
AUC(0-t) (clinical [5]; AUC0-24 h, Ibrutinib 140 mg + grapefruit juice, fed, n=7): 339 ng·h/mL
AUC(0-inf) (clinical [5]; [15]): 334 ng·h/mL
AUC(0-t) (clinical [5]; AUClast, Ibrutinib 140 mg + grapefruit juice, fed, n=8): 325 ng·h/mL
Cmax (clinical [5]; [15]): 125 ng/mL
DN*AUC0-24 [1, 16]: 18.7 ng·h/mL
DN*AUClast [1, 16]: 20.4 ng·h/mL
DN*Cmax [1, 16]: 3.33 ng/mL
DN*AUC0-24 [1, 17]: 21.3 ng·h/mL
DN*AUClast [1, 17]: 23.8 ng·h/mL
DN*Cmax [1, 17]: 3.92 ng/mL
DN*AUC0-24 [1, 18]: 18.5 ng·h/mL
DN*AUClast [1, 18]: 19.2 ng·h/mL
DN*Cmax [1, 18]: 3.57 ng/mL
DN* AUC∞ [1, 19]: 23.7 ng·h/mL
DN* AUC∞ [1, 20]: 28.1 ng·h/mL
tlast [1, 16]: 30.93 h
tlast [1, 17]: 34.00 h
tlast [1, 18]: 24.01 h
AUMC∞ [1, 19]: 576 h · h · ng/mL
MRT [1, 19]: 8.11 h
AUMC∞ [1, 20]: 857 h · h · ng/mL
MRT [1, 20]: 8.93 h
AUMC∞ ([1]; Ibrutinib in plasma, Day 1, 120 mg Ibrutinib alone, n=12, median): 693 h · h · ng/mL
AUC0-24 [1, 21]: 63.8 ng·h/mL
Cmax [1, 21]: 11.8 ng/mL
AUC0-24 [1, 22]: 464 ng·h/mL
AUClast [1, 22]: 488 ng·h/mL
AUC∞ [1, 22]: 491 ng·h/mL
AUMC∞ [1, 22]: 3235 h · h · ng/mL
Cmax [1, 22]: 95.2 ng/mL
MRT [1, 22]: 6.6 h
tlast [1, 22]: 40.51 h
AUC0-24 [1, 23]: 510 ng·h/mL
AUClast [1, 23]: 533 ng·h/mL
AUC∞ [1, 23]: 536 ng·h/mL
AUMC∞ [1, 23]: 3504 h · h · ng/mL
Cmax [1, 23]: 108 ng/mL
MRT [1, 23]: 6.8 h
tlast [1, 23]: 42.68 h
AUClast [1, 24]: 559 ng·h/mL
AUMC∞ [1, 24]: 3635 h · h · ng/mL
tlast [1, 24]: 48.00 h
Ibrutinib systemic exposure when dosed concomitantly with ketoconazole ([1]; healthy subjects): significantly affected
